Entries after “also recorded” stand apart in the source; their conditions may differ.
Assays:
[1] = H2O2 (antioxidant) activity assay; format: biochemical
Source text: FIG. 17(A-F) is an exemplary embodiment of identification of novel ERO1α inhibitors by high throughput screening in accordance with the present disclosure. FIG. 17A: A scheme of an ERO1α activity assay. FIG. 17B: Screening of chemical libraries in the ERO1α activity assay. FIG. 17C: The inhibitory effect of selected compounds on ERO1α activity. FIG. 17D: The inhibitory effect of selected compounds on PDI activity. FIG. 17E: The inhibitory effect of selected compounds on H2O2 activity. FIG. 17F: The inhibitory effect of selected compounds on thiol-reacting activity. The data represent the mean±SD (n=3). *P<0.05, **P<0.01, ***P<0.001, and ****P<0.0001 vs. vehicle control, Student's t-test.
To identify a novel ERO1α inhibitor, 5800 compounds were screened using an ERO1α activity assay (FIG. 17A and FIG. 17B). […] The selected compounds were further tested in assays measuring PDI, antioxidant, and thiol-reacting activities (FIG. 17D through FIG. 17F). […] B12 inhibited P-selectin exposure and αIIbβ3 activation in agonist-activated mouse and human platelets in a concentration-dependent manner (FIG. 18B through FIG. 18E).

mouse platelets = test: Ca2+ mobilization (FLIPR), mouse platelets; format: cell-based
Protocol: FIG. 15 is an exemplary embodiment of EN460 affecting the basal level of cytosolic Ca2+ and inhibiting Ca2+ mobilization in accordance with the present disclosure. WT mouse platelets were pretreated with vehicle (0.1% DMSO) or 5-10 μM EN460, followed by measuring Ca2+ release and influx after stimulation with 2 μM A23187 and the addition of 1 mM CaCl2). The data represent the mean±SD (n=3). P values determined by ANOVA and Dunnett's test.
Ca^2+ mobilization was measured as described previously. WT control and Ero1α-null platelets (1×10^8/mL) were suspended in HEPES-Tyrode buffer, pH 7.4. Cells were incubated with a Ca^2+ dye (FLIPR Ca^2+5 assay kit; Molecular Devices) for 30 minutes at 37° C. in the dark, followed by stimulation with thrombin (0.1 U/mL), A23187 (2 μM) or thapsigargin (10-20 μM). After measuring Ca^2+ release, 1 mM CaCl2) was immediately added to assess Ca^2+ influx. In other experiments, Ca^2+ dye-labeled human and WT mouse platelets were incubated with a vehicle or an inhibitor for 10 minutes at 37° C. Cytosolic Ca^2+ levels were measured using a FlexStation3 microplate reader with an excitation wavelength of 485 nm and an emission wavelength of 525 nm. Ca^2+ mobilization was quantified by the area under the curve and expressed as a relative fluorescence unit.

[2] = target: T1, MAO-A (monoamine oxidase A) (Homo sapiens, UniProt P21397); details: from studies; cited from earlier work
T1 sequence (P21397 1-527): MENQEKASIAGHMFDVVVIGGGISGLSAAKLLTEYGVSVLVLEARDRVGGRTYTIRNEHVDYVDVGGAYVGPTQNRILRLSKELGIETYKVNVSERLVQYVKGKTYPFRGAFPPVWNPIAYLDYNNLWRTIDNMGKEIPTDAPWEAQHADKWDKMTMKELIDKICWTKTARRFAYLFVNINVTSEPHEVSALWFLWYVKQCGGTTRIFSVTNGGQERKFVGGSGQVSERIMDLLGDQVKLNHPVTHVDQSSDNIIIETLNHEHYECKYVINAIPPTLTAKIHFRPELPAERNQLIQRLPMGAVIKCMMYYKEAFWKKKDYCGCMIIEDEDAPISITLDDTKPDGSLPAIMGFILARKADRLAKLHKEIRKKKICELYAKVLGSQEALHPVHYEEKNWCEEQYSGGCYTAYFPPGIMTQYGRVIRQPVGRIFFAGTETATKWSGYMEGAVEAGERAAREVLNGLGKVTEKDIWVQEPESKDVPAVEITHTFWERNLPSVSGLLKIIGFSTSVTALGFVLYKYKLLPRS

In the case of `O=C(CSc1nc(O)cc(O)n1)N1c2ccccc2Sc2ccccc21` [B12-5], the “H2O2 inhibition at 100 μM (%)” value ([1]; 100 μM) is reported as 6.6 ± 2%, the “effect on H2O2 (antioxidant) activity” value ([1]; at or up to 100 μM) is reported as “minimal effect; also recorded: did not affect” and the “Ca2+ release and influx” value (mouse platelets; mouse platelets, thrombin or A23187) is reported as “dose dependently inhibited”.

For `O=C(O)c1cc(N2N=C(C(F)(F)F)/C(=C/c3ccc(-c4ccccc4)o3)C2=O)ccc1Cl` [EN460], the “Ca2+ release and influx” value (mouse platelets; A23187 stimulation, 5-10 μM) is listed as “diminished”, the “basal level of cytosolic Ca2+” value (mouse platelets; concentration-dependent, 5-10 μM, 3 to 10 μM) is listed as “increased” and the IC50 [2] is listed as 7.9 µM.
